Results reported in patent US12655104B2, “Anticancer compounds selective for ER-positive cancers” (THE BOARD OF TRUSTEES OF THE UNIVERSITY OF ILLINOIS, priority 2020, dated 2026).
Where two headings read alike, the source gives them in different places. Each block holds one molecule with its values, some of them ahead of it.

Columns and labels:
HCT-116 = assay: Alamar blue fluorescence viability (IC50), HCT-116; format: cell-based; details: for Fold Change: Average Fold Change between 24/72 hr IC50 values for MCF-7 and HCT-116; for IC50: HCT-116, ERα negative
Description: (§1) Cancer Cell Lines: Culturing Conditions and Validation. All cell lines were cultured at 37° C. with 5% CO2. All ERα-positive cell lines were grown in media lacking phenol red. MCF-7 were grown in EMEM with 10% FBS and 1% penicillin-streptomycin (P/S). T47D were cultured in MEM with 10% FBS and 1% P/S. TYS and TDG cells were grown in MEM supplemented with 10% CD-FBS and 1% P/S. HCT-116 and MDA-MB-231 cells were cultured in RPMI-1640 supplemented with 10% FBS and 1% P/S. MDA-MB-436 cells were cultured in DMEM supplemented with 10% FBS and 1% P/S. HT-29 were cultured in McCoy's media supplemented with 10% FBS and 1% P/S. All cell lines were used directly from ATCC stocks and/or have been further authenticated using PowerPlex16HS Assay (Promega) as described previously.^54 In short, >1 million cells were harvested and lysed using the cell lysis buffer (50 mM Tris, 50 mM EDTA, 25 mM sucrose, 100 mM NaCl, 1% SDS, pH 8). DNA extraction and short tandem repeats (STRs) profiling for each cell line were carried out at the University of Arizona Genetics Core (UAGC). Autosomal STR profiles were compared to reference databases such as ATCC, DSMZ, and JCRB.
(§2) Alamar Blue Fluorescence for Anticancer Activity (IC50). 2,000-15,000 cells per well were seeded a 96-well plate. Cells were allowed to adhere before DMSO stock solutions of test compounds were added to each well with a final concentration of DMSO in each well=1%; final volume: 100 μL. At the end of the desired incubation time (e.g., 24 or 72 hours), media in each well was aspirated and new fresh media (no compound, 100 μL) was added. Alamar blue solution (4 mg resazurin per 40 mL PBS) was then added (10 μL). After 2-6 hours incubation, each well's fluorescence (λexcit.=555 nm, λemission.=585 nm) was measured using a SpectraMax M3 plate reader (Molecular Devices). Percent dead was determined by comparison to a 100% dead control: 100 μM raptinal treated cells. Dose dependent curves and IC50 were calculated using Origin Pro V10.

MCF-7 cells = assay: Alamar blue fluorescence viability (IC50), MCF-7; format: cell-based
Description: as §1, §2

MDA-MB-231 = assay: Alamar blue fluorescence viability (IC50), MDA-MB-231; format: cell-based; details: for Fold Change: Average Fold Change between 24/72 hr IC50 values for MCF-7 and MDA-MB-231; for IC50: MDA-MB-231, ERα negative
Description: as §1, §2

HT-29 = assay: Alamar blue fluorescence viability (IC50), HT-29; format: cell-based; details: for Fold Change: Average Fold Change between 24/72 hr IC50 values for MCF-7 and HT-29; for IC50: HT-29, ERα negative
Description: as §1, §2

[1] = Simulated gastric fluid (SGF) stability assay; format: in vitro ADME; details: 100 μM in SGF with pepsin
Description: Simulated Gastric Fluid (SGF) Stability Assay. SGF was prepared fresh by adding 3.2 g pepsin (Sigma Aldrich P7000) to 1000 mL of SGF (Fischer Scientific 7108-16) and the pH adjusted to 1.2 using a pH meter. This SGFwith pepsin solution was then warmed to 37° C. 990 μL of warmed SGFwith pepsin was then aliquoted into multiple Eppendorf tubes, followed by 10 μL of 10 mM DMSO stock solutions of test compounds. Erythromycin (MedChemExpress HY-B0220) is a positive control for this stability assay. Samples were incubated at 37° C. for the entire experiment with vortexing every 15 minutes. At each desired time point (0, 15, 30, 60, 120 minutes), a 100 μL aliquot is removed and quenched into 50 μL of acetonitrile. Samples are stored at 4° C. until all time points are complete. Samples were then vortexed and then clarified at 3,000 RPM for 10 minutes in a 4° C. centrifuge. Supernatants were collected and compound concentrations determined by LC-MS/MS (UIUC Metabolomics Center, Urbana, IL.). Determined compound concentrations were used to calculate percent remaining compared to t=0 samples.

ERα− cancer cell lines = assay: Selectivity of cell killing, ERα+ versus ERα− cancer cell lines; format: cell-based; details: MDA-MB-231, HCT-116, HT-29; 24- and 72-hour incubations
Description: as §1, §2

[2] = MCF-7, ERα positive, 24 hr, read-out: IC50 24 hr
[3] = MCF-7, ERα positive, 72 hr, read-out: IC50 72 hr
[4] = Homo sapiens, MCF7, MCF-7 cells, 24 hours, Alamar blue, mean ± s.e.m., read-out: IC50

IC50 (HCT-116; 24 hr, read-out: IC50 24 hr): 38 ± 4 µM | IC50 (HCT-116; 72 hr, read-out: IC50 72 hr): 21 ± 4 µM | IC50 (MCF-7 cells; [2]): 39 ± 10 nM | IC50 (MCF-7 cells; [3]): 33 ± 1 nM | IC50 (MDA-MB-231; 24 hr, read-out: IC50 24 hr): 49 ± 4 µM | IC50 (MDA-MB-231; 72 hr, read-out: IC50 72 hr): 22 ± 1 µM | IC50 (HT-29; 24 hr, read-out: IC50 24 hr): 29 ± 1 µM | IC50 (HT-29; 72 hr, read-out: IC50 72 hr): 25 ± 3 µM
SMILES: O=C1Nc2c(C(F)(F)F)cccc2C1(c1ccc(O)cc1)N1CCCC(F)(F)C1 (centres unmarked)
Fold Change (HCT-116): 636 | Fold Change (MDA-MB-231): 667 | Fold Change (HT-29): 758

IC50 (HCT-116; 24 hr, read-out: IC50 24 hr): 45 ± 5 µM | IC50 (HCT-116; 72 hr, read-out: IC50 72 hr): 20 ± 6 µM | IC50 (MCF-7 cells; [2]): 17 ± 1 nM | IC50 (MCF-7 cells; [3]): 22 ± 1 nM | IC50 (MDA-MB-231; 24 hr, read-out: IC50 24 hr): 51 ± 5 µM | IC50 (MDA-MB-231; 72 hr, read-out: IC50 72 hr): 32 ± 3 µM | IC50 (HT-29; 24 hr, read-out: IC50 24 hr): 35 ± 6 µM | IC50 (HT-29; 72 hr, read-out: IC50 72 hr): 30 ± 5 µM
SMILES: O=C1Nc2c(C(F)(F)F)cccc2C1(c1ccc(O)cc1)N1CCC(F)(F)C1 (centres unmarked)
Fold Change (HCT-116): 909 | Fold Change (MDA-MB-231): 1455 | Fold Change (HT-29): 1364

IC50 (MCF-7 cells; [3]): 117 ± 3 nM
SMILES: O=C1Nc2c(C(F)(F)F)cccc2C1(c1ccc(O)cc1)N1CC(F)(F)C1 (centres unmarked)

SMILES: O=C1Nc2c(C(F)(F)F)cccc2C1(c1ccc(O)cc1)N1CCC(F)(F)CC1 (racemic) [Compound 2, 3-(4,4-difluoropiperidin-1-yl)-3-(4-hydroxyphenyl)-7-(trifluoromethyl)indolin-2-one]
IC50 (MCF-7 cells; [4]): 35 nM

SMILES: O=C1Nc2c(C(F)(F)F)cccc2[C@@]1(c1ccc(O)cc1)N1CCC(F)CC1 [(R)-22, (R)-3-(4-fluoropiperidin-1-yl)-3-(4-hydroxyphenyl)-7-(trifluoromethyl)indolin-2-one]
anticancer activity against MCF-7 cells (in words) (MCF-7 cells; MCF-7 cells): lack of potent activity

% Remaining after 120 min (SD) ([1]; 120 min): 0±0% | half-life at 100 μM ([1]; simulated gastric fluid with pepsin, pH 1.2, one-phase decay, read-out: t1/2 (min) (95% CI)): 10 min
SMILES: O=C1Nc2c(C(F)(F)F)cccc2[C@@]1(c1ccc(O)cc1)N1CCCC(F)(F)C1 [(R)-23, (R)-3-(3,3-difluoropiperidin-1-yl)-3-(4-hydroxyphenyl)-7-(trifluoromethyl)indolin-2-one]
potencies against ERα− cancer cell lines (in words) (ERα− cancer cell lines): double-digit micromolar

SMILES: O=C1Nc2c(C(F)(F)F)cccc2[C@]1(c1ccc(O)cc1)N1CC(F)(F)C(F)(F)C1 [(S)-26, (S)-3-(4-hydroxyphenyl)-3-(3,3,4,4-tetrafluoropyrrolidin-1-yl)-7-(trifluoromethyl) indolin-2-one]
anticancer activity against MCF-7 cells (in words) (MCF-7 cells; MCF-7 cells): inactive

IC50 (MCF-7 cells; [4]): 33 nM
SMILES: O=C1Nc2c(C(F)(F)F)cccc2C1(c1ccc(OC(F)(F)F)cc1)c1ccc(O)c(F)c1 (centres unmarked) [Compound 5, 3-(3-fluoro-4-hydroxyphenyl)-3-(4-(trifluoromethoxy)phenyl)-7-(trifluoromethyl)indolin-2-one]

IC50 (MCF-7 cells; [4]): > 1000 nM
SMILES: O=C1Nc2c(C(F)(F)F)cccc2C1(c1ccc(OC(F)(F)F)cc1)c1cc(F)c(O)c(F)c1 (centres unmarked) [Compound 6, 3-(3,5-difluoro-4-hydroxyphenyl)-3-(4-(trifluoromethoxy)phenyl)-7-(trifluoromethyl)indolin-2-one]
anticancer activity against MCF-7 cells (in words) (MCF-7 cells; MCF-7 cells): loss of activity

IC50 (MCF-7 cells; [4]): 177 nM
SMILES: O=C1Nc2c(C(F)(F)F)cccc2C1(c1ccc(OC(F)(F)F)cc1)c1ccc(O)cc1F (centres unmarked) [Compound 7, 3-(2-fluoro-4-hydroxyphenyl)-3-(4-(trifluoromethoxy)phenyl)-7-(trifluoromethyl)indolin-2-one]

IC50 (MCF-7 cells; [4]): 549 nM
SMILES: O=C1Nc2c(C(F)(F)F)cccc2C1(c1ccc(OC(F)(F)F)cc1)c1c(F)cc(O)cc1F (centres unmarked) [Compound 8, 3-(2,6-difluoro-4-hydroxyphenyl)-3-(4-(trifluoromethoxy)phenyl)-7-(trifluoromethyl)indolin-2-one]

IC50 (MCF-7 cells; [4]): > 1000 nM
SMILES: O=C1Nc2c(C(F)(F)F)cccc2C1(c1ccc(OC(F)(F)F)cc1)c1ccc(OC(F)(F)F)cc1 [Compound 9, 3,3-bis(4-(trifluoromethoxy)phenyl)-7-(trifluoromethyl)indolin-2-one]
anticancer activity against MCF-7 cells (in words) (MCF-7 cells; MCF-7 cells): lack of activity

IC50 (MCF-7 cells; [4]): 49 nM
SMILES: O=C1Nc2c(C(F)(F)F)cccc2C1(c1ccc(OC(F)(F)F)cc1)c1ccc(O)c(O)c1 (centres unmarked) [Compound 10, 3-(3,4-dihydroxyphenyl)-3-(4-(trifluoromethoxy)phenyl)-7-(trifluoromethyl)indolin-2-one]

IC50 (MCF-7 cells; [4]): > 1000 nM
SMILES: Cc1cc(C2(c3ccc(OC(F)(F)F)cc3)C(=O)Nc3c(C(F)(F)F)cccc32)ccc1O (centres unmarked) [Compound 11, 3-(4-hydroxy-3-methylphenyl)-3-(4-(trifluoromethoxy)phenyl)-7-(trifluoromethyl)indolin-2-one]

IC50 (MCF-7 cells; [4]): > 1000 nM
SMILES: Cc1cc(C2(c3ccc(OC(F)(F)F)cc3)C(=O)Nc3c(C(F)(F)F)cccc32)cc(C)c1O (centres unmarked) [Compound 12, 3-(4-hydroxy-3,5-dimethylphenyl)-3-(4-(trifluoromethoxy)phenyl)-7-(trifluoromethyl)indolin-2-one]

IC50 (MCF-7 cells; [4]): > 1000 nM
SMILES: CC(C)c1cc(C2(c3ccc(OC(F)(F)F)cc3)C(=O)Nc3c(C(F)(F)F)cccc32)cc(C(C)C)c1O (centres unmarked) [Compound 13, 3-(4-hydroxy-3,5-diisopropylphenyl)-3-(4-(trifluoromethoxy)phenyl)-7-(trifluoromethyl)indolin-2-one]

IC50 (MCF-7 cells; [4]): > 1000 nM
SMILES: O=C1Nc2c(C(F)(F)F)cccc2C1(c1ccc(O)cc1)N1CCCCC1 (centres unmarked) [Compound 16, 3-(4-hydroxyphenyl)-3-(piperidin-1-yl)-7-(trifluoromethyl)indolin-2-one]

IC50 (MCF-7 cells; [4]): 70 nM
SMILES: CC1CN(C2(c3ccc(O)cc3)C(=O)Nc3c(C(F)(F)F)cccc32)CCC1(F)F (centres unmarked) [Compound 17, 3-(4,4-difluoro-3-methylpiperidin-1-yl)-3-(4-hydroxyphenyl)-7-(trifluoromethyl)indolin-2-one]

IC50 (MCF-7 cells; [4]): > 1000 nM
SMILES: O=C1Nc2c(C(F)(F)F)cccc2C1(c1ccc(O)cc1)N1CCOCC1 (centres unmarked) [Compound 18, 3-(4-hydroxyphenyl)-3-morpholino-7-(trifluoromethyl)indolin-2-one]

IC50 (MCF-7 cells; [4]): > 1000 nM
SMILES: O=C1Nc2c(C(F)(F)F)cccc2C1(c1ccc(O)cc1)N1CCCCCC1 (centres unmarked) [Compound 19, 3-(azepan-1-yl)-3-(4-hydroxyphenyl)-7-(trifluoromethyl)indolin-2-one]

IC50 (MCF-7 cells; [4]): > 1000 nM
SMILES: O=C1Nc2c(C(F)(F)F)cccc2C1(c1ccc(O)cc1)N1CCC(O)CC1 (centres unmarked) [Compound 20, 3-(4-hydroxyphenyl)-3-(4-hydroxypiperidin-1-yl)-7-(trifluoromethyl)indolin-2-one]

IC50 (MCF-7 cells; [4]): 135 nM
SMILES: O=C1Nc2c(C(F)(F)F)cccc2C1(c1ccc(O)cc1)N1CCC(OC(F)(F)F)CC1 (centres unmarked) [Compound 21, 3-(4-hydroxyphenyl)-3-(4-(trifluoromethoxy)piperidin-1-yl)-7-(trifluoromethyl)indolin-2-one]

IC50 (HCT-116; 24 hr, read-out: IC50 24 hr): 24 ± 2 µM | IC50 (HCT-116; 72 hr, read-out: IC50 72 hr): 15 ± 3 µM | IC50 (MCF-7 cells; [2]): 5 ± 1 nM | IC50 (MCF-7 cells; [3]): 4 ± 1 nM | IC50 (MDA-MB-231; 24 hr, read-out: IC50 24 hr): 22 ± 2 µM | IC50 (MDA-MB-231; 72 hr, read-out: IC50 72 hr): 14 ± 1 µM | IC50 (HT-29; 24 hr, read-out: IC50 24 hr): 25 ± 1 µM | IC50 (HT-29; 72 hr, read-out: IC50 72 hr): 15 ± 2 µM
SMILES: O=C1Nc2c(C(F)(F)F)cccc2C1(c1ccc(O)cc1)N1CC(F)(F)C(F)(F)C1 (centres unmarked) [drawing 36]
Fold Change (HCT-116): 3750 | Fold Change (MDA-MB-231): 3500 | Fold Change (HT-29): 3750

IC50 (MCF-7 cells; [2]): > 1000 nM | IC50 (MCF-7 cells; [3]): > 1000 nM
SMILES: O=C1Nc2c(C(F)(F)F)cccc2C1(c1ccc(O)cc1)N1CC(F)(F)C(F)(F)C1 (centres unmarked) [drawing 37]
